The source of these data is US20240150293A1, “SPIROCYCLOHEXANE DERIVATIVES, PHARMACEUTICAL COMPOSITIONS CONTAINING THEM AND THEIR USES AS ANTI-APOPTOTIC INHIBITORS” (LES LABORATOIRES SERVIER, priority 2021, published 2024).

pKi: −log10 of the molar value.

For this experiment, the target named is Mcl-1 protein (UniProtKB Q07820) (Homo sapiens (Human), UniProt Q07820). The experiment can be described thus: Inhibition of Mcl-1 by the fluorescence polarisation assay (Example A, Method A). The format is binding. As to conditions: fluorescence polarization assay. In outline: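 Protein (5 nM) and fluorescein-tagged peptide tracer (1 nM) incubated with 11-point compound series for 2 h at room temperature in HEPES/NaCl/Tween 20 buffer, pH 7.4, 5% DMSO. Displacement read as decrease in polarisation; IC50 fitted by 4-parameter logistic, converted to Ki (cKi or eKi).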
Sequence of Mcl-1 protein (Q07820 whole entry): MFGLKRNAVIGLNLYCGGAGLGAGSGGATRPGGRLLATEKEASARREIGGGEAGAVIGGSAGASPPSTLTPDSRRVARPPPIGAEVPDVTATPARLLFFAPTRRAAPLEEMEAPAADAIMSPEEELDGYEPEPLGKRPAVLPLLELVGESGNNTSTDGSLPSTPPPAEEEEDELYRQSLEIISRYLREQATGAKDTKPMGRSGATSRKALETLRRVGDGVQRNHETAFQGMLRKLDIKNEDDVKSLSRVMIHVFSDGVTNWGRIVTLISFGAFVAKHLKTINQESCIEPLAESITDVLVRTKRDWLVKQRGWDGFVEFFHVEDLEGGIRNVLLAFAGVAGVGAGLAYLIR
Usually pKi stands for the negative decadic logarithm of the Ki, by convention in mol/L. Take `O=C(O)[C@]1(Nc2cccc(Cl)c2)CC[C@@]2(CC1)c1ccccc1CC2c1ccc(OCc2ccccc2)cc1` (single isomer, unassigned) [Example 352, (1r,4r)-2′-[4-(benzyloxy)phenyl]-4-(3-chloroanilino)-2′,3′-dihydrospiro[cyclohexane-1,1′-indene]-4-carboxylic acid]: the pKi is 6.10.
The value for `O=C(O)[C@]1(Nc2cccc(Cl)c2)CC[C@@]2(CC1)c1ccccc1CC2c1ccc(OCc2ccccc2)cc1` (single isomer, unassigned) [Example 353, (1r,4r)-2′-[4-(benzyloxy)phenyl]-4-(3-chloroanilino)-2′,3′-dihydrospiro[cyclohexane-1,1′-indene]-4-carboxylic acid] was 5.06; that for `O=C(O)[C@]1(Nc2cccc(Cl)c2)CC[C@@]2(CC1)c1ccccc1CC2c1cccc(OCC2CC2)c1` (single isomer, unassigned) [Example 354, (1r,4r)-4-(3-chloroanilino)-2′-[3-(cyclopropylmethoxy)phenyl]-2′,3′-dihydrospiro[cyclohexane-1,1′-indene]-4-carboxylic acid] was 6.40.
On to `O=C(O)[C@]1(Nc2cccc(Cl)c2)CC[C@@]2(CC1)c1ccccc1CC2c1cccc(OCC2CC2)c1` (single isomer, unassigned) [Example 355, (1r,4r)-4-(3-chloroanilino)-2′-[3-(cyclopropylmethoxy)phenyl]-2′,3′-dihydrospiro[cyclohexane-1,1′-indene]-4-carboxylic acid], for which the pKi was 5.00.
Take `O=C(O)[C@]1(Nc2cccc(Cl)c2)CC[C@@]2(CC1)c1ccccc1CC2c1ccc(Oc2ccncc2)cc1` (single isomer, unassigned) [Example 364, (1r,4r)-4-(3-chloroanilino)-2′-{4-[(pyridin-4-yl)oxy]phenyl}-2′,3′-dihydrospiro[cyclohexane-1,1′-indene]-4-carboxylic acid]: the pKi is 6.34.
In the case of `O=C(O)[C@]1(Nc2cccc(Cl)c2)CC[C@@]2(CC1)c1ccccc1CC2c1ccc(Oc2ccncc2)cc1` (single isomer, unassigned) [Example 365, (1r,4r)-4-(3-chloroanilino)-2′-{4-[(pyridin-4-yl)oxy]phenyl}-2′,3′-dihydrospiro[cyclohexane-1,1′-indene]-4-carboxylic acid] it was 5.51.
The value for `O=C(O)[C@]1(Nc2cccc(Cl)c2)CC[C@@]2(CC1)c1ccccc1CC2c1ccc(OCc2ccncc2)cc1` (single isomer, unassigned) [Example 369, (1r,4r)-4-(3-chloroanilino)-2′-{4-[(pyridin-4-yl)methoxy]phenyl}-2′,3′-dihydrospiro[cyclohexane-1,1′-indene]-4-carboxylic acid] was 5.72.
`O=C(O)[C@]1(Nc2cccc(Cl)c2)CC[C@@]2(CC1)c1ccccc1CC2c1cccc(OCc2cccnc2)c1` (single isomer, unassigned) [Example 372, (1r,4r)-4-(3-chloroanilino)-2′-{3-[(pyridin-3-yl)methoxy]phenyl}-2′,3′-dihydrospiro[cyclohexane-1,1′-indene]-4-carboxylic acid]: the pKi was 6.70.
On to `O=C(O)[C@]1(Nc2cccc(Cl)c2)CC[C@@]2(CC1)c1ccccc1CC2c1cccc(OCc2ccncc2)c1` (single isomer, unassigned) [Example 373, (1r,4r)-4-(3-chloroanilino)-2′-{3-[(pyridin-4-yl)methoxy]phenyl}-2′,3′-dihydrospiro[cyclohexane-1,1′-indene]-4-carboxylic acid], for which the pKi is 6.66.
In the case of `O=C(O)[C@]1(Nc2cccc(Cl)c2)CC[C@@]2(CC1)c1ccccc1CC2c1cccc(Oc2cccnc2)c1` (single isomer, unassigned) [Example 374, (1r,4r)-4-(3-chloroanilino)-2′-{3-[(pyridin-3-yl)oxy]phenyl}-2′,3′-dihydrospiro[cyclohexane-1,1′-indene]-4-carboxylic acid], the pKi is 6.72.
Regarding `O=C(O)[C@]1(Nc2cccc(Cl)c2)CC[C@@]2(CC1)c1ccccc1CC2c1cccc(Oc2ccncc2)c1` (single isomer, unassigned) [Example 376, (1r,4r)-4-(3-chloroanilino)-2′-{3-[(pyridin-4-yl)oxy]phenyl}-2′,3′-dihydrospiro[cyclohexane-1,1′-indene]-4-carboxylic acid], the pKi is 6.57.
The value for `COc1ccc2c(c1)[C@]1(CC[C@@](Nc3cccc(Cl)c3)(C(=O)O)CC1)C(c1cccc(Oc3ccccc3)c1)C2` (single isomer, unassigned) [Example 379, (1r,4r)-4-(3-chloroanilino)-6′-methoxy-2′-(3-phenoxyphenyl)-2′,3′-dihydrospiro[cyclohexane-1,1′-indene]-4-carboxylic acid] was 5.51; that for `CN(CCc1ccncc1)C(=O)C1Cc2ccccc2[C@]12CC[C@@](Nc1cccc(Cl)c1)(C(=O)O)CC2` (single isomer, unassigned) [Example 404, (1r,4r)-4-(3-chloroanilino)-2′-{methyl[2-(pyridin-4-yl)ethyl]carbamoyl}-2′,3′-dihydrospiro[cyclohexane-1,1′-indene]-4-carboxylic acid] was 5.11; that for `O=C(NCCc1ccccc1)C1Cc2ccccc2[C@]12CC[C@@](Nc1cccc(Cl)c1)(C(=O)O)CC2` (single isomer, unassigned) [Example 405, (1r,4r)-4-(3-chloroanilino)-2′-[(2-phenylethyl)carbamoyl]-2′,3′-dihydrospiro[cyclohexane-1,1′-indene]-4-carboxylic acid] was 4.82.
As to `O=C(NCCc1ccccc1)C1Cc2ccccc2[C@]12CC[C@@](Nc1cccc(Cl)c1)(C(=O)O)CC2` (single isomer, unassigned) [Example 406, (1r,4r)-4-(3-chloroanilino)-2′-[(2-phenylethyl)carbamoyl]-2′,3′-dihydrospiro[cyclohexane-1,1′-indene]-4-carboxylic acid], the pKi is 5.21.
For `CN(CCc1ccccc1)C(=O)C1Cc2ccccc2[C@]12CC[C@@](Nc1cccc(Cl)c1)(C(=O)O)CC2` (single isomer, unassigned) [Example 407, (1r,4r)-4-(3-chloroanilino)-2′-[methyl(2-phenylethyl)carbamoyl]-2′,3′-dihydrospiro[cyclohexane-1,1′-indene]-4-carboxylic acid], the pKi was 5.86.
The value for `CN(CCc1ccccc1)C(=O)C1Cc2ccccc2[C@]12CC[C@@](Nc1cccc(Cl)c1)(C(=O)O)CC2` (single isomer, unassigned) [Example 408, (1r,4r)-4-(3-chloroanilino)-2′-[methyl(2-phenylethyl)carbamoyl]-2′,3′-dihydrospiro[cyclohexane-1,1′-indene]-4-carboxylic acid] was 5.37.
Regarding `O=C(O)[C@]1(Nc2cccc(Cl)c2)CC[C@@]2(CC1)c1ccccc1CC2CC(COCCN1CCOCC1)COc1ccnc2c1CCC2` (single isomer, unassigned) [Example 495, (1r,4r)-4-(3-chloroanilino)-2′-(2-{[(6,7-dihydro-5H-cyclopenta[b]pyridin-4-yl)oxy]methyl}-3-[2-(morpholin-4-yl)ethoxy]propyl)-2′,3′-dihydrospiro[cyclohexane-1,1′-indene]-4-carboxylic acid], the pKi is 7.94.
For `CC(C)C(COc1ccncc1)CC1Cc2ccccc2[C@]12CC[C@@](Nc1cccc(Cl)c1)(C(=O)O)CC2` (single isomer, unassigned) [Example 534, (1r,4r)-4-(3-chloroanilino)-2′-(3-methyl-2-{[(pyridin-4-yl)oxy]methyl}butyl)-2′,3′-dihydrospiro[cyclohexane-1,1′-indene]-4-carboxylic acid], the negative logarithm of the Ki (pKi) was 5.82.
In the case of `CC1CCc2nccc(OC[C@H](C)CC3Cc4ccccc4[C@]34CC[C@@](Nc3cccc(Cl)c3)(C(=O)O)CC4)c21` (single isomer, unassigned) [Example 601] it was 7.48.
Turning to `O=C(O)[C@]1(Nc2cccc(Br)c2)CC[C@@]2(CC1)C(=O)Nc1ccccc12` [Example 1, (1r,4r)-4-(3-bromoanilino)-2′-oxo-1′,2′-dihydrospiro[cyclohexane-1,3′-indole]-4-carboxylic acid], the pKi was 4.63.
In the case of `CCN1c2ccccc2[C@]2(CC[C@](Nc3cccc(Br)c3)(C(=O)O)CC2)C1=O` [Example 2, (1r,4r)-4-(3-bromoanilino)-1′-ethyl-2′-oxo-1′,2′-dihydrospiro[cyclohexane-1,3′-indole]-4-carboxylic acid] it was 5.12.
The value for `O=C(O)C1(Nc2cccc(Br)c2)CCC2(CC1)CNc1ccccc12` (stereo not drawn) [Example 3, 4-(3-bromoanilino)-1′,2′-dihydrospiro[cyclohexane-1,3′-indole]-4-carboxylic acid] was 4.89; that for `CN1CC2(CCC(Nc3cccc(Br)c3)(C(=O)O)CC2)c2ccccc21` (stereo not drawn) [Example 4, 4-(3-bromoanilino)-1′-methyl-1′,2′-dihydrospiro[cyclohexane-1,3′-indole]-4-carboxylic acid] was 5.23.
In the case of `CN1c2ccc(I)cc2[C@]2(CC[C@](Nc3cccc(Br)c3)(C(=O)O)CC2)C1=O` [Example 5, (1r,4r)-4-(3-bromoanilino)-5′-iodo-1′-methyl-2′-oxo-1′,2′-dihydrospiro[cyclohexane-1,3′-indole]-4-carboxylic acid] it was 4.66.
As for `CN1c2ccc(Br)cc2[C@]2(CC[C@](Nc3cccc(Br)c3)(C(=O)O)CC2)C1=O` [Example 6, (1r,4r)-5′-bromo-4-(3-bromoanilino)-1′-methyl-2′-oxo-1′,2′-dihydrospiro[cyclohexane-1,3′-indole]-4-carboxylic acid], the pKi is 5.00.
On to `Cc1ccc2c(c1)[C@]1(CC[C@](Nc3cccc(Br)c3)(C(=O)O)CC1)C(=O)N2C` [Example 7, (1r,4r)-4-(3-bromoanilino)-1′,5′-dimethyl-2′-oxo-1′,2′-dihydrospiro[cyclohexane-1,3′-indole]-4-carboxylic acid], for which the pKi was 4.62.
